≈ marks a conversion by molar mass, not a printed value.
Tests used:
physchem [1] = details: buffer, pH 7.4
Description: GSK_TB: GSK in-house hydrophobicity assay at pH7.4 (logD)

physchem [2] = details: octanol/water
Description: GSK_TB: GSK in-house hydrophobicity assay (logP)

physchem [3] = details: phosphate buffered saline, pH 7.4
[4] = system: Mycobacterium tuberculosis H37Rv; test: microbe, parasite or virus in culture
Description: GSK_TB: Intracellular minimum inhibitory concentration (MIC) H37Rv assay

Compound	logD (physchem [1])	logP (physchem [2])	solubility kinetic (physchem [3]) [µM]	MIC90 [4] [µM]
Cc1cccc(Cn2ccc(NC(=O)c3ccc4c(c3)OCO4)n2)c1	5.07	5.27	80 (≈ 26.8 µg/mL)	3.7 (≈ 1.24 µg/mL)
Cn1ccnc1CNCCS(=O)(=O)c1cccc(Nc2ccc(-c3cccc(F)c3)cn2)c1	4.41	4.62	64 (≈ 29.8 µg/mL)	4.68 (≈ 2.18 µg/mL)
O=C(O)C(F)(F)F.c1ccc(C[C@H]2CN(c3nccc(Oc4ccc(-n5ccnc5)cc4)n3)CCN2)cc1	3.58	4.33	260	1.8
O=C(CCC1CCCCC1)Nc1cccc(-c2nnc(-c3ccco3)o2)c1	6.84	7.18	1 (≈ 0.365 µg/mL)	6.1 (≈ 2.23 µg/mL)
O=C(NCc1ccc2c(c1)OCO2)c1c(C(F)(F)F)nc2ccccn12	4.23	4.38	115 (≈ 41.8 µg/mL)	3.3 (≈ 1.2 µg/mL)
Br.CCc1ccccc1OCCCON1C(=N)N=C(N)NC1(C)C	3.3	4.83	225	3.2
CCN(Cc1ccc2c(c1)OCO2)C(=O)CSc1nc(NC)c2ccccc2n1	4.69	4.83	74 (≈ 30.4 µg/mL)	2.8 (≈ 1.15 µg/mL)
CCCCc1ccc(C(=O)Nc2nccc3ccccc23)nc1	6.65	6.94	98 (≈ 29.9 µg/mL)	9.23 (≈ 2.82 µg/mL)
c1ccc(-c2nc(NC3CCCCC3)cc(C3CC3)n2)nc1	6.09	6.74	302 (≈ 88.9 µg/mL)	7.08 (≈ 2.08 µg/mL)
Br.Cc1cc(C)cc(OCCCON2C(=N)N=C(N)NC2(C)C)c1	3.2	4.72	358	5.31
O=C(O)C(F)(F)F.c1ccc2c(-c3ccc(CNCC4CCNC4)cc3)cncc2c1 (centres undefined)	1.52	3.02	61	5.56
Cc1ccc2nc(C)c(C(=O)NCC(C)C)n2c1	3.39	3.41	287 (≈ 70.4 µg/mL)	7.67 (≈ 1.88 µg/mL)
O=C(c1cc2ccccc2o1)N1CCN(Cc2ccc3c(c2)OCO3)CC1	5.63	5.83	171 (≈ 62.3 µg/mL)	2.7 (≈ 0.984 µg/mL)
CC(C)n1ncc2c(C(=O)NCC(c3cccs3)N3CCOCC3)cc(-c3ccccc3)nc21 (centres undefined)	7.21	7.54	1 (≈ 0.476 µg/mL)	4.8 (≈ 2.28 µg/mL)
COc1cc(C(F)(F)F)nc2ccc(C)c(N)c12	4.97	5.13	446 (≈ 114 µg/mL)	5.3 (≈ 1.36 µg/mL)
CCOC(=O)c1cc(-c2csc(Nc3c(C)cc(C)cc3C)n2)on1	7.12	7.45	1 (≈ 0.357 µg/mL)	4.07 (≈ 1.46 µg/mL)
CNc1nc(SCC(=O)N(C)Cc2ccc(Cl)s2)nc2ccccc12	5.07	5.23	56 (≈ 22 µg/mL)	5.62 (≈ 2.21 µg/mL)
O=C(NNC(=O)c1ccc([N+](=O)[O-])o1)c1ccc2ccccc2c1	3.02	3.48	1 (≈ 0.325 µg/mL)	8.32 (≈ 2.71 µg/mL)
CCCCS(=O)(=O)Nc1ccc2cnn(C)c2c1	3.48	3.58	552 (≈ 148 µg/mL)	1.3 (≈ 0.348 µg/mL)
Cc1nc2ccccn2c1C(=O)NCc1ccccc1	3.2	3.2	403 (≈ 107 µg/mL)	2 (≈ 0.531 µg/mL)
O=C(NCc1ccccc1F)N1CCN(Cc2ccc(Br)s2)CC1	5.72	5.93	60 (≈ 24.7 µg/mL)	6.6 (≈ 2.72 µg/mL)
O=C(Nc1nc(-c2ccccn2)cs1)c1cncn1-c1ccccc1	3.39	3.38	118 (≈ 41 µg/mL)	7.94 (≈ 2.76 µg/mL)
COc1ccc(CCNC(=O)c2c(C)nc3ccccn23)cc1	3.39	3.41	348 (≈ 108 µg/mL)	3.1 (≈ 0.959 µg/mL)

Compound	logD (physchem [1])	logP (physchem [2])	solubility kinetic (physchem [3]) [µM]	MIC90 [4] [µM]
O=C(Cc1ccc(F)cc1)Nc1nc(-c2ccccn2)cs1	4.32	4.33	14 (≈ 4.39 µg/mL)	9.3 (≈ 2.91 µg/mL)
CSc1cccc(C(=O)Nc2nc(-c3ccccn3)cs2)c1	5.25	5.26	12 (≈ 3.93 µg/mL)	3.72 (≈ 1.22 µg/mL)
CSc1ccc(-c2nnc(NC(=O)c3ccc(Cl)s3)o2)cc1	3.76	6.07	67 (≈ 23.6 µg/mL)	6.61 (≈ 2.32 µg/mL)
COc1ccc(-c2cc(NC(=O)c3ccc(F)cc3Cl)ccc2OC)cc1	6.28	6.48	1 (≈ 0.386 µg/mL)	8.13 (≈ 3.14 µg/mL)
O=C(C=Cc1cccs1)N1CCN(Cc2ccc(Br)s2)CC1	6.47	6.74	152 (≈ 60.4 µg/mL)	1.9 (≈ 0.755 µg/mL)
CCc1c(C)nc(-n2nc(C)cc2NC(=O)c2ccccc2SC)[nH]c1=O	5.63	6.48	1 (≈ 0.383 µg/mL)	1.15 (≈ 0.44 µg/mL)
CCOc1ccc(-c2nc(CNCCc3ccc(F)cc3)cs2)cc1.O=C(O)C(=O)O	6.09	7.45	159	1.07
Cc1nc2ccccn2c1C(=O)Nc1ccc(C(C)(C)C)cc1	5.81	6.03	85 (≈ 26.1 µg/mL)	6.2 (≈ 1.91 µg/mL)
NC(=O)c1cc(-c2ccsc2)ccc1OCCOc1ccccc1	5.44	5.78	1 (≈ 0.339 µg/mL)	3.5 (≈ 1.19 µg/mL)
CCOC(=O)CC[C@H](NC(=O)c1ccc(S(=O)(=O)Nc2ccc3nc(N)[nH]c(=O)c3c2)cc1)C(=O)OCC	2.46	2.45	300 (≈ 164 µg/mL)	1.5 (≈ 0.818 µg/mL)
Cc1n[nH]c(C)c1S(=O)(=O)NCc1nc(NCCCc2ccccc2)c2ccccc2n1	4.32	4.52	240 (≈ 108 µg/mL)	1.8 (≈ 0.811 µg/mL)
CC(=O)N1CCc2cc3nc(C)cc(C)c3cc21	2.64	2.65	309 (≈ 74.3 µg/mL)	3.7 (≈ 0.889 µg/mL)
Fc1ccc2nc(Nc3nc(-c4ccccn4)cs3)sc2c1	5.53	5.54	28.5 (≈ 9.36 µg/mL)	2.3 (≈ 0.755 µg/mL)
CCC(Sc1nc2ccccc2o1)C(=O)Nc1nccs1 (centres undefined)	5.44	5.78	105 (≈ 33.5 µg/mL)	2.79 (≈ 0.89 µg/mL)
CN1CCN(c2ccc(C(F)(F)F)cc2NC(=O)c2ccccn2)CC1	6.19	6.84	182 (≈ 66.3 µg/mL)	1.91 (≈ 0.694 µg/mL)
CCc1ccc(Nc2nnc(SCc3cc(C)on3)s2)cc1	5.72	5.98	1 (≈ 0.332 µg/mL)	2.8 (≈ 0.931 µg/mL)
CCn1c(=O)c(=O)[nH]c2cc(C(=O)Nc3ccccc3Nc3ccc(OC)cc3)ccc21	3.67	3.87	47 (≈ 20.2 µg/mL)	8.4 (≈ 3.62 µg/mL)
O=C(Nc1ccccc1-c1nc(C2CCC2)cs1)OCC1CCNCC1.O=C(O)C(F)(F)F	4.41	8.15	115	8.71
O=C(NC1=NCCS1)c1sc2cc(F)ccc2c1Cl	5.16	5.49	1 (≈ 0.315 µg/mL)	8.61 (≈ 2.71 µg/mL)
CC(C)(C)C(=O)CC1(O)Oc2ccccc2N=C1C=C(O)C(C)(C)C (centres undefined)	7.49	7.84	75 (≈ 25.9 µg/mL)	4.03 (≈ 1.39 µg/mL)
COc1ccc2sc(Nc3nc(-c4ccccn4)cs3)nc2c1	5.35	5.34	22 (≈ 7.49 µg/mL)	8.2 (≈ 2.79 µg/mL)
Cc1nnc(NCc2cccc(Cl)c2)c2ccccc12	4.32	4.52	127 (≈ 36 µg/mL)	5.9 (≈ 1.67 µg/mL)
c1csc(Cc2nn3c(-c4n[nH]c5c4CCC5)nnc3s2)c1	3.3	3.48	196 (≈ 64.4 µg/mL)	2.4 (≈ 0.788 µg/mL)

— ChEMBL document CHEMBL2095176, “GSK Tuberculosis Screening Data”
